# US11254667B2 (priority 2016, dated 2022)
# Where two headings read alike, the source gives them in different places.
# Assays:
# MA9-NRas cells = test: NRAS IC50 (MA9-NRas cells); assay type: cell-based
# physchem = details: pH 7.4, aqueous buffer, kinetic from dmso stock
# in vivo = details: NRG/NRGS, mouse, ip, 30 mg/kg
# [1] = Homo sapiens; read-out: NRAS IC50
# [2] = Homo sapiens, read-out: NRAS IC50
Structure (SMILES),Stability (rat),solubility (physchem),IC50 (MA9-NRas cells; [2]),other results
"COc1cc2ncc(-c3cccc(N(C)C4CCNC4)n3)n2cc1-c1cn[nH]c1 (stereo not drawn) [Compound I-31, 6-(7-methoxy-6-(1H-pyrazol-4-yl)imidazo[1,2-a]pyridin-3-yl)-N-methyl-N-(pyrrolidin-3-yl)pyridin-2-amine]",11.5 min,14.1 µg/mL,,IC50 (MA9-NRas cells; [1]): 16.6 µM
"Clc1ccc2ncc(-c3cccc(NC4CCNC4)n3)n2c1 (stereo not drawn) [Compound I-16, 6-(6-chloroimidazo[1,2-a]pyridin-3-yl)-N-(pyrrolidin-3-yl)pyridin-2-amine]",25.6 min,> 46 µg/mL,1.76 µM,
"COc1cc2ncc(-c3cccc(NC4CCCNC4)n3)n2cc1-c1cn[nH]c1 (stereo not drawn) [Compound I-29, 6-(7-methoxy-6-(1H-pyrazol-4-yl)imidazo[1,2-a]pyridin-3-yl)-N-(piperidin-3-yl)pyridin-2-amine]",9.8 min,35.6 µg/mL,9.35 µM,
"COc1cc(NC2CNC2)nc(-c2cnc3ccc(Cl)cn23)c1 [Compound I-67, N-(azetidin-3-yl)-6-(6-chloroimidazo[1,2-a]pyridin-3-yl)-4-methoxypyridin-2-amine]",>30.0 min,> 49 µg/mL,,
"c1cc(NC2CCNC2)nc(-c2cnc3cc(OCCN4CCOCC4)c(-c4cn[nH]c4)cn23)c1 (stereo not drawn) [Compound I-41, 6-(7-(2-morpholinoethoxy)-6-(1H-pyrazol-4-yl)imidazo[1,2-a]pyridin-3-yl)-N-(pyrrolidin-3-yl)pyridin-2-amine]",>30.0 min,> 70 µg/mL,17.6 µM,
COc1cc(-c2cn[nH]c2)cn2c(-c3cccc(NC4CCNC4)n3)cnc12 (stereo not drawn) [Compound I-37],2.3 min,> 55 µg/mL,16.6 µM,
"N#Cc1ccc2ncc(-c3cccc(NC4CNC4)n3)n2c1 [Compound I-60, 3-(6-(azetidin-3-ylamino)pyridin-2-yl)imidazo[1,2-a]pyridine-6-carbonitrile]",16.4 min,> 43 µg/mL,,
"Cc1ccn2c(-c3cccc(NC4CNC4)n3)cnc2c1 [Compound I-61, N-(azetidin-3-yl)-6-(7-methylimidazo[1,2-a]pyridin-3-yl)pyridin-2-amine]",>30.0 min,> 41 µg/mL,,
Clc1cn2c(-c3cccc(NC4CCNC4)n3)cnc2cc1OCCN1CCOCC1 (stereo not drawn) [Compound I-40],>30.0 min,> 65 µg/mL,0.626 µM,
O=C(c1ccccc1)N1CC(Nc2cccc(-c3cnc4ccc(Cl)cn34)n2)C1 [Compound I-58],8.0 min,< 1 µg/mL,,
c1cc(N[C@H]2CCNC2)nc(-c2cnc3ccc(-c4cn[nH]c4)cn23)c1 [Compound I-44],,42.6 µg/mL,,Stability: 6.7 min
COc1cc2ncc(-c3cccc(NC4CCNC4)n3)n2cc1C#N (stereo not drawn) [Compound I-39],8.8 min,10.6 µg/mL,5.58 µM,
COc1cc2ncc(-c3cccc(NC4CCNC4)n3)n2cc1-c1cnn(CCN2CCOCC2)c1 (stereo not drawn) [Compound I-26],>30.0 min,> 72 µg/mL,15.7 µM,
"c1cc(NC2CNC2)nc(-c2cnc3ccccn23)c1 [Compound I-12, N-(azetidin-3-yl)-6-(imidazo[1,2-a]pyridin-3-yl)pyridin-2-amine]",>30.0 min,> 39 µg/mL,,
"COc1cc2ncc(-c3cccc(NC4CCNC4)n3)n2cc1-c1ccncc1 (stereo not drawn) [Compound I-23, 6-(7-methoxy-6-(pyridin-4-yl)imidazo[1,2-a]pyridin-3-yl)-N-(pyrrolidin-3-yl)pyridin-2-amine]",>30.0 min,11.6 µg/mL,1.83 µM,
"COc1ccn2c(-c3cccc(NC4CNC4)n3)cnc2c1 [Compound I-50, N-(azetidin-3-yl)-6-(7-methoxyimidazo[1,2-a]pyridin-3-yl)pyridin-2-amine]",>30.0 min,> 44 µg/mL,,
c1cc(NC2CNC2)nc(-c2cnc3ccc(-c4cn[nH]c4)cn23)c1 [Compound I-45],,> 49 µg/mL,4.29 µM,
CCN1CCN(c2ccc3ncc(-c4cccc(NC5CNC5)n4)n3c2)CC1 [Compound I-64],,> 56 µg/mL,,
COc1cc2ncc(-c3cccc(NC4CCNCC4)n3)n2cc1-c1cn[nH]c1 [Compound I-30],24.7 min,12.3 µg/mL,,
Brc1ccc2ncc(-c3cccc(NC4CNC4)n3)n2c1 [Compound I-52],19.8 min,41.8 µg/mL,,
COc1cc2ncc(-c3cccc(NC4CCNC4)n3)n2cc1OC (stereo not drawn) [Compound I-36],>30.0 min,> 50 µg/mL,4.43 µM,
CN(c1cccc(-c2cnc3ccc(Cl)cn23)n1)C1CCNCC1 [Compound I-51],,> 50 µg/mL,,Stability: 9.0 min

Structure (SMILES),Stability (rat),solubility (physchem),IC50 (MA9-NRas cells; [2]),other results
"COc1cc2ncc(-c3cccc(NC4CCNC4)n3)n2cc1-c1cc[nH]c1 (stereo not drawn) [Compound I-27, 6-(7-methoxy-6-(1H-pyrrol-3-yl)imidazo[1,2-a]pyridin-3-yl)-N-(pyrrolidin-3-yl)pyridin-2-amine]",>30.0 min,34.3 µg/mL,4.43 µM,
Clc1ccc2ncc(-c3cc(Br)cc(NC4CNC4)n3)n2c1 [Compound I-53],>30.0 min,19.5 µg/mL,,
Cn1cc(-c2ccc3ncc(-c4cccc(NC5CNC5)n4)n3c2)cn1 [Compound I-46],>30.0 min,43.1 µg/mL,16.6 µM,
CC(=O)N1CC(Nc2cccc(-c3cnc4ccc(Cl)cn34)n2)C1 [Compound I-57],>30.0 min,> 50 µg/mL,,
"COc1cc2ncc(-c3cccc(NC4CCNC4)n3)n2cc1Cl (stereo not drawn) [Compound I-21, 6-(6-chloro-7-methoxyimidazo[1,2-a]pyridin-3-yl)-N-(pyrrolidin-3-yl)pyridin-2-amine]",27 min,7.7 µg/mL,,
"c1cc(NC2CCNC2)nc(-c2cnc3ccc(-c4cn[nH]c4)cn23)c1 (stereo not drawn) [Compound I-54, 6-(6-(1H-pyrazol-4-yl)imidazo[1,2-a]pyridin-3-yl)-N-(pyrrolidin-3-yl)pyridin-2-amine]",,> 51 µg/mL,,Stability: 7.6 min
"COc1cc2ncc(-c3cccc(NC4CCNC4)n3)n2cc1-c1c(C)noc1C (stereo not drawn) [Compound I-28, 6-(6-(3,5-dimethylisoxazol-4-yl)-7-methoxyimidazo[1,2-a]pyridin-3-yl)-N-(pyrrolidin-3-yl)pyridin-2-amine]",15.7 min,> 60 µg/mL,,IC50 (MA9-NRas cells; [1]): 14.8 µM
"Cc1cc(NC2CNC2)nc(-c2cnc3ccc(Cl)cn23)c1 [Compound I-55, N-(azetidin-3-yl)-6-(6-chloroimidazo[1,2-a]pyridin-3-yl)-4-methylpyridin-2-amine]",,> 46 µg/mL,,
"COc1cc2ncc(-c3cccc(OC4CCNC4)n3)n2cc1-c1cn[nH]c1 (stereo not drawn) [Compound I-32, 7-methoxy-6-(1H-pyrazol-4-yl)-3-(6-(pyrrolidin-3-yloxy)pyridin-2-yl)imidazo[1,2-a]pyri-dine]",7.7 min,8.2 µg/mL,3.72 µM,
Clc1cc2ncc(-c3cccc(NC4CNC4)n3)n2cc1Cl [Compound I-62],>30.0 min,41.5 µg/mL,,
"COc1cc(Cl)cn2c(-c3cccc(NC4CNC4)n3)cnc12 [Compound I-42, N-(azetidin-3-yl)-6-(6-chloro-8-methoxyimidazo[1,2-a]pyridin-3-yl)pyridin-2-amine]",,> 49 µg/mL,20.9 µM,Stability: >30 min
Fc1cc(F)c(-c2cnc3ccc(Cl)cn23)nc1NC1CNC1 [Compound I-47],>30.0 min,> 50 µg/mL,1.88 µM,
Cc1ccc(NC2CNC2)nc1-c1cnc2ccc(Cl)cn12 [Compound I-49],26.2 min,> 46 µg/mL,,
N#CCC(=O)N1CC(Nc2cccc(-c3cnc4ccc(Cl)cn34)n2)C1 [Compound I-59],>30.0 min,18.3 µg/mL,,
"COc1cc2ncc(-c3cccc(NC4CCNC4)n3)n2cc1-c1cccnc1 (stereo not drawn) [Compound I-22, 6-(7-methoxy-6-(pyridin-3-yl)imidazo[1,2-a]pyridin-3-yl)-N-(pyrrolidin-3-yl)pyridin-2-amine]",,29 µg/mL,,AUC(0-inf) (in vivo): 4850 ng·h/mL; Cmax (in vivo): 1540 ng/mL; Tmax (in vivo): 30 min; solubility kinetic (physchem): 29 µM
COc1cc2ncc(-c3cccc(NC4CCNC4)n3)n2cc1-c1nnn[nH]1 (stereo not drawn) [Compound I-38],>30.0 min,> 56 µg/mL,0.002 µM,
"C#Cc1cn2c(-c3cccc(NC4CCNC4)n3)cnc2cc1OC (stereo not drawn) [Compound I-68, 6-(6-ethynyl-7-methoxyimidazo[1,2-a]pyridin-3-yl)-N-(pyrrolidin-3-yl)pyridin-2-amine]",11.6 min,> 49 µg/mL,,
"COc1cc2ncc(-c3nc(NC4CCNC4)c(F)cc3F)n2cc1-c1cn[nH]c1 (stereo not drawn) [Compound I-33, 3,5-difluoro-6-(7-methoxy-6-(1H-pyrazol-4-yl)imidazo[1,2-a]pyridin-3-yl)-N-(pyrrolidin-3-yl)pyridin-2-amine]",9.3 min,3.9 µg/mL,29.8 µM,
"COc1cc2ncc(-c3cccc(NC4CCNC4)n3)n2cc1-c1c(C)n[nH]c1C (stereo not drawn) [Compound I-25, 6-(6-(3,5-dimethyl-1H-pyrazol-4-yl)-7-methoxyimidazo[1,2-a]pyridin-3-yl)-N-(pyrrolidin-3-yl)pyridin-2-amine]",>30.0 min,> 60 µg/mL,,IC50 (MA9-NRas cells; [1]): 15.7 µM
Cc1ccc(-c2cnc3ccc(Cl)cn23)nc1NC1CNC1 [Compound I-48],11.8 min,> 46 µg/mL,,
"Clc1ccn2c(-c3cccc(NC4CNC4)n3)cnc2c1 [Compound I-63, N-(azetidin-3-yl)-6-(7-chloroimidazo[1,2-a]pyridin-3-yl)pyridin-2-amine]",,> 44 µg/mL,,
